Experimental data from article PMC11726183, “Design, synthesis, in vitro, and in silico studies of novel isatin-hybrid hydrazones as potential triple-negative breast cancer agents” (RSC Advances, 2025).
Like-named read-outs stand apart in the source and are kept apart here.

Experiments:
Type in all cases: cell-based, human
[1] = tested on: MDA-MB-231 breast cancer cell line; test: MTT cytotoxicity assay on breast cancer cell line MDA-MB-231; conditions: for IC50: read-out: IC50 values, breast cancer cell line MDA-MB-231; for % viability, breast cancer cell line MDA-MB-231: concentration for the value not given (6.5-50 μM tested)
From the text: (§1) Breast cancer cells MDA-MB-231 were used to investigate the synthesized compounds' anticancer properties. Because these cancer cells lack estrogen receptors (ER), progesterone receptors (PR), and human epidermal growth factor receptor 2 (HER2), they are also known as triple-negative breast cancer cells (TNBC).[44] These receptors are generally utilized as target proteins in cancer treatment and are often overexpressed in cancer cells. […] At the same time human normal breast epithelial cell line MCF-10A was kept as a control in the experiment to check out whether the cytotoxic effects of the compounds were selective for malignant cells in comparison to non-malignant cells. Variable concentrations (6.5 μM, 12.5 μM, 25 μM, and 50 μM) of the synthesized compounds 5–25 were used to investigate the prohibition of growth in the human breast cancer cell line MDA-MB-231 and the non-tumorigenic MCF-10. The MTT [3-(4,5-dimethylthiazol-2-yl)-2,5-diphenyltetrazolium bromide] assay was used to determine the reduction in cancer cell viability induced by cytotoxic agents. […] IBM SPSS Statistics 26 software was used for the analysis of dose–response and computation of IC50 values.
(§2) In vitro, cytotoxicity assay for the synthetic derivatives was determined by performing an MTT (yellow tetrazolium salt, 3-(4,5-dimethylthizol-2-yl)-2,5-diphenyl tetrazolium bromide) assay by using an aggressive breast cancer cell line MDA-MB-231.[51] Human breast normal cell line MCF-10A was kept as a control in the study.[52,53] Cells were cultured in DMEM augmented with 10% FBS and 1% antibiotics (100 U per mL penicillin). The cells were sowed in a 96-well plate at a 1.0 × 10^4 cells per well density and incubated for 24 h at 37 °C in 5% CO2. The medium was discarded, and both the cell lines were treated with different concentrations (6.5 μM, 12.5 μM, 25 μM, and 50 μM) of synthetic hydrazone derivatives.[54] After 48 h of incubation 20 μL of MTT solution (5 mg mL^−1) was pipetted into each well and incubated for another 4 h.[55] Later the medium was discarded, and the precipitate of formazan was dissolved in DMSO. The absorbance of the mixtures was calculated using a microplate reader at 570 nm. Triplicates were used for performing all experiments and the cytotoxicity was expressed as a percentage of cell viability compared to untreated control cells.[54]1 [drawing 22]

[2] = MTT cytotoxicity assay on normal breast epithelial cell line MCF-10A (control); conditions: human, MTT, 48 h, concentration for the value not given (6.5-50 μM tested)
From the text: as §1, §2

normal cell line MCF-10 = test: as above; conditions: for IC50: read-out: IC50 values, normal cell line MCF-10
From the text: as §1, §2

[3] = Homo sapiens, MDA-MB-231, MTT, 48 h
[4] = MCF-10A normal breast epithelial cells
[5] = Homo sapiens, MCF10, MTT, 48 h, unit from text (highest concentration 50 μM)

| Compound | IC50 ([1]; Homo sapiens, MDA-MB-231, 48 h) [µM] | % viability, breast cancer cell line MDA-MB-231 ([1]; MTT, 48 h) [%] | viability at 48 h [2] [%] | IC50 (normal cell line MCF-10; Homo sapiens, MCF10, 48 h) [µM] | IC50 [1, 3] [µM] | viability at 48 h [2, 4] [%] | IC50 (normal cell line MCF-10; [5]) [µM] | IC50 ([1]; MTT, 48 h) [µM] | % viability, normal cell line MCF-10 (normal cell line MCF-10; MTT, 48 h, concentration for the value not given (6.5-50 μM tested)) [%] | IC50 (normal cell line MCF-10; MTT, 48 h, unit from text (highest concentration 50 μM)) [µM] |
| --- | --- | --- | --- | --- | --- | --- | --- | --- | --- | --- |
| O=C(N/N=C1/C(=O)N(Cc2ccccc2)c2ccccc21)c1cccc(Cl)c1 [Compound 5, (E)-N′-(1-Benzyl-2-oxoindolin-3-ylidene)-3-chlorobenzohydrazide] | 26.4 ± 0.8 | 27.11 | 80.1 | > 50 | – | – | – | – | – | – |
| COc1ccc(C(=O)N/N=C2/C(=O)N(Cc3ccccc3)c3ccccc32)cc1 [Compound 6, (E)-N′-(1-Benzyl-2-oxoindolin-3-ylidene)-4-methoxybenzohydrazide] | 25.8 ± 0.4 | 26.13 | 81.1 | > 50 | – | – | – | – | – | – |
| Cc1ccc(F)c(C(=O)N/N=C2/C(=O)N(Cc3ccccc3)c3ccccc32)c1 [Compound 7, (E)-N′-(1-Benzyl-2-oxoindolin-3-ylidene)-2-fluoro-5-methylbenzohydrazide] | 33.6 ± 0.5 | 30.01 | 79.3 | > 50 | – | – | – | – | – | – |
| O=C(N/N=C1/C(=O)N(Cc2ccccc2)c2ccccc21)c1ccncc1 [Compound 8, (E)-N′-(1-Benzyl-2-oxoindolin-3-ylidene)isonicotinohydrazide] | 16.8 ± 0.9 | 19.13 | 78.1 | > 50 | – | – | – | – | – | – |
| Cc1ccc(C(=O)N/N=C2/C(=O)N(Cc3ccccc3)c3ccccc32)cc1F [Compound 9, (E)-N′-(1-Benzyl-2-oxoindolin-3-ylidene)-3-fluoro-4-methylbenzohydrazide] | 27.4 ± 0.5 | 25.61 | 76.2 | > 50 | – | – | – | – | – | – |
| O=C(Cc1ccccc1C(F)(F)F)N/N=C1/C(=O)N(Cc2ccccc2)c2ccccc21 [Compound 10, (E)-N′-(1-Benzyl-2-oxoindolin-3-ylidene)-2-(2-(trifluoromethyl)phenyl)acetohydrazide] | – | 29.12 | – | – | 25.4 ± 0.8 | 84.9 | > 50 | – | – | – |
| O=C(N/N=C1/C(=O)N(Cc2ccccc2)c2ccccc21)c1ccccc1 [Compound 11, (E)-N′-(1-Benzyl-2-oxoindolin-3-ylidene)benzohydrazide] | 28.4 ± 0.5 | 25.41 | 82 | > 50 | – | – | – | – | – | – |
| O=C(Cc1ccc(C(F)(F)F)cc1)N/N=C1/C(=O)N(Cc2ccccc2)c2ccccc21 [Compound 12, (E)-N′-(1-Benzyl-2-oxoindolin-3-ylidene)-2-(4-(trifluoromethyl)phenyl)acetohydrazide] | – | 36.52 | – | – | 31.2 ± 0.9 | 80.4 | > 50 | – | – | – |
| O=C(N/N=C1/C(=O)N(Cc2ccccc2)c2ccccc21)c1cccc2ccccc12 [Compound 13, (E)-N′-(1-Benzyl-2-oxoindolin-3-ylidene)-1-naphthohydrazide] | 28.6 ± 0.5 | 29.01 | 79.1 | > 50 | – | – | – | – | – | – |
| O=C(N/N=C1/C(=O)N(Cc2ccccc2)c2ccccc21)c1ccc(Br)cc1 [Compound 14, (E)-N′-(1-Benzyl-2-oxoindolin-3-ylidene)-4-bromobenzohydrazide] | 36.8 ± 0.7 | 42.11 | 85.4 | > 50 | – | – | – | – | – | – |
| Cc1ccccc1C(=O)N/N=C1/C(=O)N(Cc2ccccc2)c2ccccc21 [Compound 15, (E)-N′-(1-Benzyl-2-oxoindolin-3-ylidene)-2-methylbenzohydrazide] | 24.4 ± 0.6 | 23.77 | 84.3 | > 50 | – | – | – | – | – | – |
| O=C(N/N=C1/C(=O)N(Cc2ccccc2)c2ccccc21)c1ccco1 [Compound 16, (E)-N′-(1-Benzyl-2-oxoindolin-3-ylidene)furan-2-carbohydrazide] | 29.2 ± 0.7 | 29.40 | 79.9 | > 50 | – | – | – | – | – | – |
| O=C(N/N=C1/C(=O)N(Cc2ccccc2)c2ccccc21)c1ccc(C(F)(F)F)cc1 [Compound 17, (E)-N′-(1-Benzyl-2-oxoindolin-3-ylidene)-4-(trifluoromethyl)benzohydrazide] | 37.5 ± 0.9 | 38.09 | 77.6 | > 50 | – | – | – | – | – | – |
| O=C(N/N=C1\C(=O)N(Cc2ccccc2)c2ccccc21)c1cccnc1 [Compound 18, (Z)-N′-(1-Benzyl-2-oxoindolin-3-ylidene)nicotinohydrazide] | 34.6 ± 0.4 | 41.19 | 85.1 | > 50 | – | – | – | – | – | – |
| O=C(Cc1ccccc1Nc1c(Cl)cccc1Cl)N/N=C1/C(=O)N(Cc2ccccc2)c2ccccc21 [Compound 19, (E)-N′-(1-Benzyl-2-oxoindolin-3-ylidene)-2-(2-((2,6-dichlorophenyl)amino)phenyl) acetohydrazide] | – | 37.23 | – | – | 29.2 ± 0.4 | 80.3 | > 50 | – | – | – |
| O=C(N/N=C1/C(=O)N(Cc2ccccc2)c2ccccc21)c1ccccc1Cl [Compound 20, (E)-N′-(1-Benzyl-2-oxoindolin-3-ylidene)-2-chlorobenzohydrazide] | 28.8 ± 0.6 | 34.56 | 77.6 | > 50 | – | – | – | – | – | – |
| O=C(Cc1ccc(F)cc1F)N/N=C1/C(=O)N(Cc2ccccc2)c2ccccc21 [Compound 21, (E)-N′-(1-Benzyl-2-oxoindolin-3-ylidene)-2-(2,4-difluorophenyl)acetohydrazide] | 22.2 ± 0.7 | 22.46 | 85.7 | > 50 | – | – | – | – | – | – |
| O=C(N/N=C1/C(=O)N(Cc2ccccc2)c2ccccc21)c1ccccc1Br [Compound 22, (E)-N′-(1-Benzyl-2-oxoindolin-3-ylidene)-2-bromobenzohydrazide] | 26.1 ± 0.7 | 21.28 | 78.4 | > 50 | – | – | – | – | – | – |
| O=C(Cc1ccccc1)N/N=C1/C(=O)N(Cc2ccccc2)c2ccccc21 [Compound 24, (E)-N′-(1-Benzyl-2-oxoindolin-3-ylidene)-2-phenylacetohydrazide] | – | 29.54 | – | – | 24.5 ± 0.8 | 78.5 | > 50 | – | – | – |
| O=C(N/N=C1/C(=O)N(Cc2ccccc2)c2ccccc21)c1cc2ccccc2cc1O [Compound 25, (E)-N′-(1-Benzyl-2-oxoindolin-3-ylidene)-3-hydroxy-2-naphthohydrazide] | 30.6 ± 0.4 | 31.67 | 76.3 | > 50 | – | – | – | – | – | – |
| (E)-1-Benzyl-3-((2-(4-nitrophenyl)-2-oxoethyl)imino)indolin-2-one [Compound 23] | – | 17.37 | – | – | – | – | – | 15.8 ± 0.6 | 75.23 | > 50 |
